In patent US5952323A, “Carbapenem antibiotic” (Merck & Co., Inc., priority 1998, dated 1999):
Like-named read-outs stand apart in the source and are kept apart here.

Columns and labels:
[1] = pH of the solution upon dissolution; assay type: physicochemical; conditions: monosodium salt of compound I
Text: The compositions of the present invention are generally formulated using a carbon dioxide source. Preferred sources of carbon dioxide are carbon dioxide (gas, liquid or solid), carbonates and bicarbonates, and more preferably sodium carbonate and sodium bicarbonate, which can be incorporated into the formulation, such that an appropriate pH, e.g., about 6.2-8.5, is obtained upon dissolution. The native pH of the monosodium salt of compound I is approximately 5.4.
One formulation that is of particular interest is comprised of about 3-6 parts by weight, and preferably about 4.5 parts by weight, of compound I, or the pharmaceutically acceptable salt, stabilized form, prodrug or hydrate thereof, and 1 part by weight of sodium bicarbonate. Preferably the carbapenem is in the form of the monosodium salt. The pH which results upon dissolution of this formulation is approximately 6.5. Formulating the drug in this manner can extend the stability of the product in solution.
Another formulation that is of particular interest is comprised of about 4-10 parts by weight, and preferably about 6.7 parts by weight, of the compound of formula I, or the pharmaceutically acceptable salt, stabilized form, prodrug or hydrate thereof, and 1 part by weight sodium carbonate. Preferably the carbapenem is in the form of the monosodium salt. […]

[2] = assay type: physicochemical; conditions: 25° C.
Procedure: The final pH of the solution is shown below. Solution stability of this intravenous formulation was determined at 25° C. with the following results.

dehydropeptidase (DHP) = assay: Susceptibility to attack by dehydropeptidase (DHP); assay type: in vitro ADME; conditions: compared with naturally occurring carbapenems
Text: The compound of formula I is of the broad class known as carbapenems. Naturally occurring carbapenems are susceptible to attack by a renal enzyme known as dehydropeptidase (DHP). This attack or degradation may reduce the efficacy of the carbapenem antibacterial agent. […] However, use of a DHP inhibitor is optional and is contemplated as being included in the present invention. Inhibitors of DHP and heir use with carbapenem antibacterial agents are disclosed in European Patent Applications No. 79102616.4, filed Jul. 24, 1979 (Patent No. 007 614); and No. 82107174.3, filed Aug. 9, 1982 (Publication No. 072 014)!.
The compound of the present invention may, where DHP inhibition is desired or necessary, be combined or used with the appropriate DHP inhibitor as described in the aforesaid patents and published application. The cited European Patent Application defines the procedure for determining DHP susceptibility of the present carbapenems and disclose suitable inhibitors, combination compositions and methods of treatment.

Compound: CC(O)C1C(=O)N2C(C(=O)O)=C(SC3CNC(C(=O)Nc4cccc(C(=O)O)c4)C3)C(C)C12 (stereo not shown) [Compound I]
- native pH [1]: approximately 5.4
- final pH ([2]; 12 mg/mL (marked *)): 7.4
- k ([2]; 12 mg/mL (marked *)): 0.004994 h⁻¹
- t 90% ([2]; 12 mg/mL (marked *)): 21.0 h
- initial pH ([2]; 12 mg/mL (marked *), intravenous formulation): 7.0
- final pH ([2]; 36 mg/mL): 7.3
- k ([2]; 36 mg/mL): 0.01044 h⁻¹
- t 90% ([2]; 36 mg/mL): 7.3 h
- initial pH ([2]; 36 mg/mL, intravenous formulation with sodium bicarbonate 8.0 mg/mL, sodium chloride 4.0 mg/mL): 6.7
- susceptibility to attack by dehydropeptidase (DHP) (dehydropeptidase (DHP)): significantly less subject to such attack
